Patent EP2818471A1, “Nitrogen bicyclic compounds as inhibitors for Scyl1 and Grk5” (Max-Planck-Gesellschaft zur Förderung der Wissenschaften …, priority 2013, dated 2014)

tested on: beta-TC6 cells; assay: Insulin HTRF assay, relative activity Ar normalized to sunitinib; assay type: cell-based; settings: Mus musculus, normalized to positive control sunitinib (5 µM = 100%), Table 10
In short: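 Relative activity Ar was scaled between 0% and 100% controls, with sunitinib at 5 µM f.c. as reference. Insulin released by beta-TC6 cells was quantified by sandwich HTRF (Eu-cryptate/XL665 antibodies, 120 min RT). Cells had been seeded 24 or 48 h, then treated 2–4 h at 37°C in induction buffer, 0.5% DMSO.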

Structure (SMILES) | Emax [%]
CCCNc1ccc2ncc(-c3cccc(/C=C/C(=O)O)c3)n2n1 [compound 21, (E)-3-[3-[6-(propylamino)imidazo[1,2-b]pyridazin-3-yl]phenyl]prop-2-enoic acid] | 10 to 20
Brc1cnc2ccc(NCCCN3CCOCC3)nn12 [compound 44, 3-bromo-N-(3-morpholinopropyl)imidazo[1,2-b]pyridazin-6-amine] | 10 to 20
CCOc1cccc(-c2cn3c(-c4cccc(CO)c4)cnc3cn2)c1 [compound 378, [3-[6-(3-ethoxyphenyl)imidazo[1,2-a]pyrazin-3-yl]phenyl]methanol] | 20 to 50
Fc1cccc(-c2cnc3cnc(-c4ccc5c(c4)OCO5)cn23)c1 [compound 386, 6-(1,3-benzodioxol-5-yl)-3-(3-fluorophenyl)imidazo[1,2-a]pyrazine] | 20 to 50
CN(C)c1ccc(-c2cnc3cnc(-c4ccc(NCCN5CCOCC5)nc4)cn23)cc1 [compound 282, 5-[3-(4-dimethylaminophenyl)imidazo[1,2-a]pyrazin-6-yl]-N-(2-morpholinoethyl)pyridin-2-amine] | 50 to 100
COc1ccc(-c2cnc3cnc(-c4cccs4)cn23)cc1 [compound 362, 3-(4-methoxyphenyl)-6-(2-thienyl)imidazo[1,2-a]pyrazine] | 20 to 50
COc1ccc(-c2ccc3nnc(-c4ccc(OCCCN(C)C)cc4)n3c2)cc1OC [compound 236, 3-[4-[6-(3,4-dimethoxyphenyl)-[1,2,4]triazolo[4,3-a]pyridin-3-yl]phenoxy]-N,N-dimethyl-propan-1-amine] | 50 to 100
COc1ccccc1CC(=O)Nc1cnc2cnc(-c3cccc(Cl)c3Cl)cn12 [compound 250, N-[6-(2,3-dichlorophenyl)imidazo[1,2-a]pyrazin-3-yl]-2-(2-methoxyphenyl)acetamide] | 20 to 50
CN(C)C(=O)c1cccc(-c2ccc3nnc(-c4ccc5nccnc5c4)n3c2)c1 [compound 246, N,N-dimethyl-3-(3-quinoxalin-6-yl-[1,2,4]triazolo[4,3-a]pyridin-6-yl)benzamide] | 50 to 100
CS(=O)(=O)Nc1cccc(-c2cnc3ccc(Cc4ccc(F)cc4)nn23)c1 [compound 159, N-[3-[6-[(4-fluorophenyl)methyl]imidazo[1,2-b]pyridazin-3-yl]phenyl]methanesulfonamide] | 10 to 20
COc1cc(-c2ccc3ncc(-c4ccc(F)c(Cl)c4)n3n2)cc(OC)c1OC [compound 114, 3-(3-chloro-4-fluoro-phenyl)-6-(3,4,5-trimethoxyphenyl)imidazo[1,2-b]pyridazine] | 10 to 20
COc1cccc(CC(=O)Nc2cnc3cnc(-c4cnn(C)c4)cn23)c1 [compound 261, 2-(3-methoxyphenyl)-N-[6-(1-methylpyrazol-4-yl)imidazo[1,2-a]pyrazin-3-yl]acetamide] | 10 to 20
Cc1cc(-c2cnc3cccnn23)cc(C)c1O [compound 77, 4-imidazo[1,2-b]pyridazin-3-yl-2,6-dimethyl-phenol] | 10 to 20
Clc1ccccc1-c1ccc2nnc(-c3cccnc3)n2c1 [compound 184, 6-(2-chlorophenyl)-3-(3-pyridyl)-[1,2,4]triazolo[4,3-a]pyridine] | 50 to 100
CNC(=O)c1ccc(-c2ccc3nnc(-c4ccc(OCCCN(C)C)cc4)n3c2)cc1 [compound 240, 4-[3-[4-[3-(dimethylamino)propoxy]phenyl]-[1,2,4]triazolo[4,3-a]pyridin-6-yl]-N-methyl-benzamide] | 20 to 50
COc1ccc(-c2cnc3ccc(NCCCO)nn23)c(OC)c1 [compound 42, 3-[[3-(2,4-dimethoxyphenyl)imidazo[1,2-b]pyridazin-6-yl]amino]propan-1-ol] | 10 to 20
c1csc(-c2cn3c(-c4cccs4)cnc3cn2)c1 [compound 424, 3,6-bis(2-thienyl)imidazo[1,2-a]pyrazine] | 50 to 100
c1cncc(-c2cnc3ccc(-c4cccs4)nn23)c1 [compound 108, 3-(3-pyridyl)-6-(2-thienyl)imidazo[1,2-b]pyridazine] | 20 to 50
